The values that follow come from patent US7232835B2, “3,6-Disubstituted azabicyclo derivatives as muscarinic receptor antagonists” (Ranbaxy Laboratories Limited, priority 2002, dated 2007).

In one test the test system is isolated rat bladder. Kind of test: tissue or blood. It counts as cell-based.
A further test addresses T1, M2 muscarinic receptor (Rattus norvegicus, UniProt P10980).
T1 construct: Submandibular glands and heart were isolated and placed in ice cold homogenising buffer; from tissue; host or cells: rat heart membrane homogenate
T1 sequence (P10980 1-466): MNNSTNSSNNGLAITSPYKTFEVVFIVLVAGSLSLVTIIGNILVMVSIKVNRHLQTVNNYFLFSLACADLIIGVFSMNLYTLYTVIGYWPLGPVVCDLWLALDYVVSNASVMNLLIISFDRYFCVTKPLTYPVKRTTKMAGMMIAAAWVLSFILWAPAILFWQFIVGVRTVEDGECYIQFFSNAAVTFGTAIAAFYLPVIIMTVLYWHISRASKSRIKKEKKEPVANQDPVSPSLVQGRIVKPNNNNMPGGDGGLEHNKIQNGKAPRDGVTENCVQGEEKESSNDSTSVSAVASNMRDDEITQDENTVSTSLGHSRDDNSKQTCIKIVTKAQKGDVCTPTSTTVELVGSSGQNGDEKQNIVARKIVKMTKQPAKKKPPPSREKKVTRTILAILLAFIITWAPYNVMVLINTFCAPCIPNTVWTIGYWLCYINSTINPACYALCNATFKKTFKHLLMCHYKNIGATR
As to the kind of experiment: [3H]-N-methylscopolamine radioligand binding assay, rat heart membranes.

A further test deals with T2, M3 muscarinic receptor (Rattus norvegicus, UniProt P08483).
T2 construct: Submandibular glands and heart were isolated and placed in ice cold homogenising buffer; from tissue; host or cells: rat submandibular gland membrane homogenate
T2 sequence (P08483 whole entry): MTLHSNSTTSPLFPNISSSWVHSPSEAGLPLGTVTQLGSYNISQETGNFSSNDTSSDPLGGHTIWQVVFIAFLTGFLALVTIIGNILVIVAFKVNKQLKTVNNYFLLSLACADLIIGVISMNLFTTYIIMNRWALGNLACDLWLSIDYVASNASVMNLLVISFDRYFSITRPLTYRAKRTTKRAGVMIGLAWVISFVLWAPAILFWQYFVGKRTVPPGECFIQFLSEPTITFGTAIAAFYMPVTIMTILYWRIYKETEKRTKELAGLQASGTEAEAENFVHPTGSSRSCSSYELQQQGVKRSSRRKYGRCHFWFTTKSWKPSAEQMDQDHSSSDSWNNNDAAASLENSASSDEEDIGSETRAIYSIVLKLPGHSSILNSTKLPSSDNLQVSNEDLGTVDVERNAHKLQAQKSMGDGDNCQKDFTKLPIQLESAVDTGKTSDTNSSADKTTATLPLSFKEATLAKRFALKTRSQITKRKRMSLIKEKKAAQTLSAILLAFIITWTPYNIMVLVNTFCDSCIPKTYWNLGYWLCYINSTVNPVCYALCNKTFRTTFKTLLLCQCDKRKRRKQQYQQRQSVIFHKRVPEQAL
As to the kind of experiment: [3H]-N-methylscopolamine radioligand binding assay, rat submandibular gland membranes. Also on record: Receptor Binding Assay Selectivity: reference not given here. Particulars: for Ki / M3 Pki: rat submandibular gland, [3H]NMS.

[1] abbreviates: Table II, rat bladder strips, antagonism of carbachol contraction, read-out: Functional Assay KB.
[2] abbreviates: Table III, rat bladder strips, antagonism of carbachol contraction, read-out: Rat Bladder pKB (converted).
[3] abbreviates: Table III, read-out: M3 Ki (nm).
Where [4] appears, read: Table III, rat heart, [3H]NMS, read-out: M2 Ki (nm).
Setting [5] is: Table IV, rat heart, [3H]NMS, read-out: Receptor Binding Assay (pKi) M2 (converted).
[6] abbreviates: Table IV, read-out: Receptor Binding Assay (pKi) M3 (converted).

SMILES strings stand for the structures. Read-outs that look alike come from different tables or passages of the source.

As for `O=C(N[C@H]1[C@@H]2CN(Cc3ccccc3)C[C@@H]21)C(O)(c1ccccc1)C1CCCCC1` (stereo partly drawn) [Compound No. 22, (1α,5α,6α)-6-N-(3-azabicyclo[3.1.0]hexyl-3-benzyl)-2-cyclohexyl-2-hydroxy-2-phenyl acetamide], the values for the Kb in the test on isolated rat bladder (setting [1]) and with isolated rat bladder (setting [2]) were 27.5 nM and 26.9 nM, respectively. The Ki on M2 muscarinic receptor (M2 Ki (nm)) is 2260 nM; at M2 muscarinic receptor (Receptor Binding Assay Ki (nM) M2) it was 2260 nM; at M3 muscarinic receptor (Table II, read-out: Receptor Binding Assay Ki (nM) M 3), 94 nM; at M3 muscarinic receptor (setting [3]), 94 nM. Further, the “Receptor Binding Assay Selectivity” value on M3 muscarinic receptor came out at 24.07.
Take `O=C(NC1C2CN(Cc3cc(F)cc(F)c3)CC21)C(O)(c1ccccc1)C1CCCCC1` (stereo not drawn) [Compound No. 23, (1α,5α,6α)-6-N-(3-azabicyclo[3.1.0]hexyl-3-(3,5-difluorobenzyl))-2-cyclohexyl-2-hydroxy-2-phenyl acetamide]: the Kb in the test with isolated rat bladder (setting [2]) is 2290 nM. Also, the Ki was above 1000 nM on M2 muscarinic receptor (setting [4]) and 530 nM on M3 muscarinic receptor (setting [3]).
Take `O=C(NC1C2CN(Cc3ccc(Br)cc3)CC21)C(O)(c1ccccc1)C1CCCCC1` (stereo not drawn) [Compound No. 24, (1α,5α,6α)-6-N-(3-azabicyclo[3.1.0]hexyl-3-(4-bromobenzyl))-2-cyclohexyl-2-hydroxy-2-phenyl acetamide]: the Kb with isolated rat bladder (setting [2]) is 3800 nM. In addition, the Ki at M2 muscarinic receptor (setting [4]) is above 1000 nM; on M3 muscarinic receptor (setting [3]), 490 nM.
In the case of `O=C(NC1C2CN(CCc3ccc4c(c3)CCO4)CC21)C(O)(c1ccccc1)C1CCCCC1` (stereo not drawn) [Compound No. 28, (1α,5α,6α)-6-N-(3-azabicyclo[3.1.0]hexyl-3-(2-(2,3-dihydrobenzofuran-5-yl)ethyl))-2-cyclohexyl-2-hydroxy-2-phenyl acetamide], the Ki was above 1000 nM at M2 muscarinic receptor (setting [4]) and 150 nM at M3 muscarinic receptor (setting [3]).
The like results for `O=C(NC1C2CN(CCc3ccc4c(c3)OCO4)CC21)C(O)(c1ccccc1)C1CCCCC1` (stereo not drawn) [Compound No. 29, (1α,5α,6α)-6-N-(3-azabicyclo[3.1.0]hexyl-3-(2-(3,4-methylenedioxyphenyl)ethyl))-2-cyclohexyl-2-hydroxy-2-phenyl acetamide] were, in that order, above 1000 nM and 97 nM.
On to `O=C(Cc1ccc2c(c1)CCO2)N1CC2C(C1)C2NC(=O)C(O)(c1ccccc1)C1CCCCC1` (stereo not drawn) [Compound No. 30, (1α,5α,6α)-6-N-(3-azabicyclo[3.1.0]hexyl-3-(1-(2,3-dihydrobenzofuran-5-yl)acetyl))-2-cyclohexyl-2-hydroxy-2-phenyl acetamide], for which the “M2 pKi” value at M2 muscarinic receptor (Table III, rat heart, [3H]NMS) was below 5. The “M3 Pki” value at M3 muscarinic receptor (Table III) was 6.08. In addition, the Ki on M3 muscarinic receptor (setting [3]) turned out to be 833 nM.
For `O=C(NC1C2CN(CCc3ccc4occc4c3)CC21)C(O)(c1ccccc1)C1CCCCC1` (stereo not drawn) [Compound No. 31, (1α,5α,6α)-6-N-(3-azabicyclo[3.1.0]hexyl-3-(2-(benzofuran-5-yl)ethyl))-2-cyclohexyl-2-hydroxy-2-phenyl acetamide], the Ki was 1590 nM on M2 muscarinic receptor (setting [4]) and 233 nM on M3 muscarinic receptor (setting [3]).
The like results for `CC(C)(C)c1ccc(C(O)(C(=O)NC2C3CN(Cc4ccccc4)CC32)C2CCCCC2)cc1` (stereo not drawn) [Compound No. 55, (1α,5α,6α)-6-N-(3-azabicyclo[3.1.0]hexyl-3-benzyl)-2-cyclohexyl-2-hydroxy-2-(4-tertbutylphenyl)acetamide] were, in that order, above 1000 nM and 380 nM.
For `O=C(N[C@H]1[C@@H]2CN(CCc3ccc4c(c3)CCO4)C[C@@H]21)C(O)(c1ccccc1)C1CCCC1` (stereo partly drawn) [Compound No. 68, (1α,5α,6α)-6-N-(3-azabicyclo[3.1.0]hexyl-3-(2-(2,3-dihydrobenzofuran-5-yl)ethyl))-2-cyclopentyl-2-hydroxy-2-phenyl acetamide] the same measures were above 1000 nM and 108 nM.
Take `Cc1cccc(N2CC3C(C2)C3NC(=O)C(O)(c2ccccc2)C2CCCC2)n1` (stereo not shown) [Compound No. 69]: the “M2 pKi” value on M2 muscarinic receptor (Table III, rat heart, [3H]NMS) was below 5. For the same compound, the Ki was above 10000 nM at M2 muscarinic receptor (setting [4]) and 1420 nM on M3 muscarinic receptor (setting [3]). In addition, the “M3 Pki” value at M3 muscarinic receptor (Table III) was 5.85.
For `O=C(Cc1ccc2c(c1)CCO2)N1CC2C(C1)C2NC(=O)C(O)(c1ccccc1)C1CCCC1` (stereo not drawn) [Compound No. 70, (1α,5α,6α)-6-N-(3-azabicyclo[3.1.0]hexyl-3-(1-(2,3-dihydrobenzofuran-5-yl)acetyl))-2-cyclopentyl-2-hydroxy-2-phenyl acetamide] the same measures were below 5, above 10000 nM, 750 nM and 6.12.
Take `O=C(N[C@H]1[C@@H]2CNC[C@@H]21)C(O)(c1ccccc1)C1CCCCC1` (stereo partly drawn) [Compound No. 85, (1α,5α,6α)-6-N-(3-azabicyclo[3.1.0]hexyl)-2-cyclohexyl-2-hydroxy-2-phenylacetamide]: the Ki on M2 muscarinic receptor (setting [5]) and on M3 muscarinic receptor (setting [6]) was above 1000 nM each time.
For `O=C(NC1C2CNCC21)C(O)(c1ccc(F)cc1)C1CCCCC1` (stereo not drawn) [Compound No. 86, (1α,5α,6α)-6-N-(3-azabicyclo-[3.1.0]hexyl)-2-cyclohexyl-2-hydroxy-2-(4-Fluorophenyl)acetamide], the Ki at M2 muscarinic receptor (setting [5]) and at M3 muscarinic receptor (setting [6]) was above 1000 nM in each case.
On to `COc1ccc(C(O)(C(=O)NC2C3CNCC32)C2CCCCC2)cc1` (stereo not drawn) [Compound No. 87, (1α,5α,6α)-6-N-(3-azabicyclo-[3.1.0]hexyl)-2-cyclohexyl-2-hydroxy-2-(4-methyoxyphenyl)acetamide], for which the Ki on M2 muscarinic receptor (setting [5]) and on M3 muscarinic receptor (setting [6]) was above 1000 nM each time.
Take `Cc1ccc(C(O)(C(=O)N[C@H]2[C@@H]3CNC[C@@H]32)C2CCCCC2)cc1` (stereo partly drawn) [Compound No. 88, (1α,5α,6α)-6-N-(3-azabicyclo-[3.1.0]hexyl)-2-cyclohexyl-2-hydroxy-2-(4-methylphenyl)acetamide]: the Ki at M2 muscarinic receptor (setting [5]) and on M3 muscarinic receptor (setting [6]) was above 1000 nM in each case.
As to `O=C(NC1C2CNCC21)C(O)(c1ccccc1)C1CCCC1` (stereo not drawn) [Compound No. 89, (1α,5α,6α)-6-N-(3-azabicyclo-[3.1.0]hexyl)-2-cyclopentyl-2-hydroxy-2-phenylacetamide], the Ki on M2 muscarinic receptor (setting [5]) and on M3 muscarinic receptor (setting [6]) was above 1000 nM throughout.
For the compound `O=C(N[C@H]1[C@@H]2CNC[C@@H]21)C(O)(c1ccccc1)C1CCCCCC1` (stereo partly drawn) [Compound No. 90, (1α,5α,6α)-6-N-(3-azabicyclo[3.1.0]hexyl)-2-cycloheptyl-2-hydroxy-2-phenylacetamide], the Ki at M2 muscarinic receptor (setting [5]) was above 1000 nM; at M3 muscarinic receptor (setting [6]), 363 nM.
For `O=C(N[C@H]1[C@@H]2CNC[C@@H]21)C(O)(c1ccccc1)C1CCC1` (stereo partly drawn) [Compound No. 91, (1α,5α,6α)-6-N-(3-azabicyclo[3.1.0]hexyl)-2-cyclobutyl-2-hydroxy-2-phenylacetamide] the same measures were 100000 nM and 2750 nM.
For `O=C(N[C@H]1[C@@H]2CNC[C@@H]21)C(O)(c1ccccc1)C1CC1` (stereo partly drawn) [Compound No. 92, (1α,5α,6α)-6-N-(3-azabicyclo-[3.1.0]hexyl)-2-cyclopropyl-2-hydroxy-2-phenylacetamide] the same measures were above 10000 nM and above 10000 nM.
With `CC(C)(C)OC(=O)N(CCCCOC(=O)C(O)(c1ccc(F)cc1)c1ccc(F)cc1)C1C2CNCC21` (stereo not drawn) [Compound No. 95, (1α,5α,6α)-4-[6-N-(3-azabicyclo[3.1.0]hexyl)]-N-(tert-butyloxycarbonyl)butyl-1-[2-hydroxy-2,2-bis-(4-fluorophenyl)]acetate], the Ki on M2 muscarinic receptor (setting [5]) and at M3 muscarinic receptor (setting [6]) was above 1000 nM throughout.
As for `CCCOC(C(=O)OCCCCN(C(=O)OC(C)(C)C)C1C2CNCC21)(c1ccc(F)cc1)c1ccc(F)cc1` (stereo not drawn) [Compound No. 96, (1α,5α,6α)-4-[6-N-(3-azabicyclo-[3.1.0]hexyl)]-N-(tert-butyloxycarbonyl)butyl-1-[2-propyloxy-2,2-bis-(4-fluorophenyl)]acetate], the Ki on M2 muscarinic receptor (setting [5]) and at M3 muscarinic receptor (setting [6]) was above 1000 nM throughout.
Consider `O=C(N[C@H]1[C@@H]2CNC[C@@H]21)C(c1ccccc1)c1ccccc1` [Compound No. 97, (1α,5α,6α)-6N-(3-azabicyclo-[3.1.0]hexyl)-2,2-diphenyl acetamide], for which the Ki at M2 muscarinic receptor (setting [5]) and on M3 muscarinic receptor (setting [6]) was above 1000 nM throughout.
With `COC(C(=O)NC1C2CNCC21)(c1ccccc1)C1CCCCC1` (stereo not drawn) [Compound No. 98, (1α,5α,6α)-6N-(3-azabicyclo-[3.1.0]hexyl)-2-cyclohexyl-2-methoxy-2-phenyl acetamide], the Ki on M2 muscarinic receptor (setting [5]) and at M3 muscarinic receptor (setting [6]) was above 1000 nM in each case.
`CCN(CC)CC#CCOC(=O)C(O)(c1ccccc1)C1CCCCC1` (stereo not shown) [Oxybutynin, oxybutynin, reference compound]: the Kb with isolated rat bladder (setting [1]) was 2 nM.
`Cc1ccc(O)c([C@H](CCN(C(C)C)C(C)C)c2ccccc2)c1` [Tolterodine, tolterodine, reference compound]: the Kb was 2 nM in the test on isolated rat bladder (Rattus norvegicus, read-out: Functional Assay KB (nM)) and 1e+07 nM with isolated rat bladder (Rattus norvegicus, read-out: Rat Bladder pKB (converted)).
